≈ marks a conversion by molar mass, not a printed value. Bridge positions count the residues as written; N and C are the ends. Square brackets hold non-standard residues; d marks the D form. Peptide text beside a SMILES is read from it. * marks the point of attachment. N(3-phenylpropyl)Gly = O=C(O)CNCCCc1ccccc1; Gly(NCH2CH2Ph) = O=C(O)CNCCc1ccccc1; Gly(N-2-aminoethyl) = NCCNCC(=O)O; Gly(N(CH2)3NH2) = NCCCNCC(=O)O; Gly(N-cPent) = O=C(O)CNC1CCCC1; Heptanoyl = CCCCCCC(=O)*; Nphe = O=C(O)CNCc1ccccc1; Octanoyl = CCCCCCCC(=O)*; Dab = NCC[C@H](N)C(=O)O; NPrGly = CCCNCC(=O)O
What was measured:
[1] = tested on: E. coli W3110; format: cell-based, Escherichia coli; settings: for Effect of salt on antibacterial activity against E. coli: NaCl 0-300 mM in 12.5% Mueller-Hinton broth at pH 8.5; for MIC on E. coli, 0 mM NaCl / MIC on E. coli, 100 mM NaCl / MIC on E. coli, 200 mM NaCl / MIC on E. coli, 300 mM NaCl: W3110, pH 8.5
Outline: (§1)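 Broth microdilution, ~5×10^5 CFU log-phase inoculum in full MH or 12.5% MH, two-fold dilutions from 32 μg/mL, 37 °C for ca. 18 h static. MTT added; MIC read by eye as lowest concentration preventing visible growth.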

[2] = tested on: P. aeruginosa PAO1; test: DiSC3(5) inner-membrane depolarization assay; format: cell-based, Pseudomonas aeruginosa; settings: 2 µM DiSC3(5), mean ± SD, n = 3
Procedure: Outer Membrane (NPN) - E. coli
Figure S6. Outer membrane permeability assay with 10 μM NPN, on E. coli W3110.
13. DiSC3(5) Inner-Membrane Depolarization Assay
A single colony of P. aeruginosa PAO1 and E. coli W3110 was grown overnight with shaking […]
(150 rpm) in LB broth (5 mL) at 37 °C. 100 μL of the overnight culture was regrown in 10 […]
mL LB broth with shaking (200 rpm) to the exponential phase OD600 = 1 (10^9 CFU/mL).
Bacteria were washed once with HEPES buffer (5 mM HEPES, 5 mM glucose, pH 7.4) and […]
diluted to OD600 = 0.5. Stock solution of 10 mM of 3,3′ -Dipropylthiadicarbocyanine iodide […]
(DiSC3(5), purchased from Sigma) was prepared in DMSO. Stock solutions of 2 m g/mL of […]
the compounds were prepared in sterilized milli -Q water and diluted to the beginning […]
concentration of 128 μg/mL in 200 μL HEPES buffer. The diluted samples were added to the […]
first well of 96-well plates (black wells, flat bottom, BRAND ® GmbH Wertheim, Germany) […]
and diluted serially by 1/2. […]
DiSC3(5) in HEPES buffer. The plate was measured with a Tecan instrument Infinite M1000 […]
wavelength used was 610 nm ± 5 nm and the emission wavelength 660 nm ± 5 nm. The assay was measured in triplicate and repeated at least two times.[10,11] […]
Saturation determination. […] The fluorescence saturation of DsPMB with LPS was first determined, by titration (0.25 μM increments, up to 5 μM) of the DsPMB into a 3 μg/mL of LPS (10 mM Tris, 10 mM NaCl buffer, pH 7.4), at 37 °C. The fluorescence was recorded with a Jasco spectrofluorometer FP-8300, with the excitation at λex = 340 nm (5 nm slit width) and recorded from 420 to 650 nm. The fluorescence was recorded two minutes after each addition. Saturation was graphically determined, at a concentration of D sPMB ≈ 2.5 μM (λem = 485 nm). Each measurement was determined in triplicates.
Displacement assay. The displacement effect of the various peptides was determined by measuring the reduction of fluorescence intensity, at 37 °C. Initially, DsPMB (2.5 μM) was mixed with LPS (3 μg/mL) and let it react for 15 minutes before recording the fluorescence

[3] = tested on: P. aeruginosa PAO1; format: cell-based, Pseudomonas aeruginosa; settings: for Effect of salt on antibacterial activity against P. aeruginosa: NaCl 0-300 mM in 12.5% Mueller-Hinton broth at pH 8.5; for MIC on P. aeruginosa, 0 mM NaCl / MIC on P. aeruginosa, 100 mM NaCl / MIC on P. aeruginosa, 200 mM NaCl / MIC on P. aeruginosa, 300 mM NaCl: PAO1, pH 8.5
Outline: as §1

Row | SMILES | Effect of salt on antibacterial activity against E. coli [1] | MIC on E. coli, 0 mM NaCl [1] | MIC on E. coli, 100 mM NaCl [1] | MIC on E. coli, 200 mM NaCl [1] | MIC on E. coli, 300 mM NaCl [1] | Inner membrane depolarization (DiSC3(5)) [2] | Effect of salt on antibacterial activity against P. aeruginosa [3] | MIC on P. aeruginosa, 0 mM NaCl [3] | MIC on P. aeruginosa, 100 mM NaCl [3] | MIC on P. aeruginosa, 200 mM NaCl [3] | MIC on P. aeruginosa, 300 mM NaCl [3]
1 | CCCCCCCC(=O)N(CCc1ccccc1)CC(=O)N[C@@H](CCCCN)C(=O)N[C@@H](CC(N)=O)C(=O)N[C@H]1CCNC(=O)[C@H](CCCCN)NC(=O)CN(CCCN)C(=O)[C@H](CCCCN)NC(=O)CN(CCC)C(=O)[C@H](CCCCN)NC1=O [EB12] (Octanoyl-[Gly(NCH2CH2Ph)]KN[Dab]K[NPrGly]K[Gly(N(CH2)3NH2)]K; lactam 4-C) | inhibited by high salt concentrations | 1 µg/mL (≈ 0.815 µM) | 2 µg/mL (≈ 1.63 µM) | 4 µg/mL (≈ 3.26 µM) | 16 µg/mL (≈ 13 µM) | induced a depolarization of the inner membrane like PMB2 | inhibited by high salt concentrations | 2 to 4 µg/mL | 32 µg/mL (≈ 26.1 µM) | > 64 µg/mL | > 64 µg/mL
2 | CCCCCCCC(=O)N[C@@H](CCCCN)C(=O)N(CC(=O)N[C@@H](CCCCN)C(=O)N[C@H]1CCNC(=O)[C@H](CCCCN)NC(=O)CN(C2CCCC2)C(=O)CN(CCN)C(=O)[C@H](CCCCN)NC(=O)[C@H](CC(N)=O)NC1=O)Cc1ccccc1 [EB21] (Octanoyl-K[Nphe]K[Dab]NK[Gly(N-2-aminoethyl)][Gly(N-cPent)]K; lactam 4-C) | inhibited by high salt concentrations | 1 µg/mL (≈ 0.816 µM) | 16 µg/mL (≈ 13.1 µM) | > 64 µg/mL | > 64 µg/mL | induced a depolarization of the inner membrane like PMB2 | inhibited by high salt concentrations | 4 µg/mL (≈ 3.26 µM) | > 64 µg/mL | > 64 µg/mL | > 64 µg/mL
3 | CCCCCCC(=O)N[C@H](C(=O)N(CCN)CC(=O)N(CCCc1ccccc1)CC(=O)N[C@H]1CCNC(=O)[C@H](CCCCN)NC(=O)CN(CCCN)C(=O)[C@H](CCCCN)NC(=O)CNC(=O)[C@H](CCCCN)NC1=O)C(C)C [EB13] (Heptanoyl-V[Gly(N-2-aminoethyl)][N(3-phenylpropyl)Gly][Dab]KGK[Gly(N(CH2)3NH2)]K; lactam 4-C) | inhibited by high salt concentrations | 0.5 µg/mL (≈ 0.438 µM) | 16 µg/mL (≈ 14 µM) | > 64 µg/mL | > 64 µg/mL | induced a depolarization of the inner membrane like PMB2 | inhibited by high salt concentrations | 4 µg/mL (≈ 3.5 µM) | > 64 µg/mL | > 64 µg/mL | > 64 µg/mL
